Test results as given in the supplement of paper PMC10307832.

Tests used:
Test in all cases: relative viability (nuclei count vs DMSO), 5 days (fraction); higher = more cells survive
BEN = system: BEN
How it was run: (§1)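 Lung cancer cell lines, seeded in 1536-well plates, were treated the following day by pin tool with a single drug or with five library-drug doses (not always all listed) in √10 steps on top of a fixed anchor-drug dose. Cells were fixed and nuclei stained in one step after 5 days, and nuclei were counted. Relative viability is the nuclei count for treated wells divided by that for vehicle wells, reported as medians of duplicate plates.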

EKVX = system: EKVX
How it was run: as §1

HARA = system: HARA
How it was run: as §1

HCC-366 = system: HCC-366
How it was run: as §1

LOU-NH91 = system: LOU-NH91
How it was run: as §1

NCI-H1355 = system: NCI-H1355
How it was run: as §1

NCI-H1395 = system: NCI-H1395
How it was run: as §1

NCI-H1437 = system: NCI-H1437
How it was run: as §1

NCI-H1734 = system: NCI-H1734
How it was run: as §1

NCI-H1792 = system: NCI-H1792
How it was run: as §1

NCI-H1993 = system: NCI-H1993
How it was run: as §1

NCI-H2009 = system: NCI-H2009
How it was run: as §1

NCI-H2087 = system: NCI-H2087
How it was run: as §1

NCI-H2170 = system: NCI-H2170
How it was run: as §1

NCI-H2405 = system: NCI-H2405
How it was run: as §1

NCI-H647 = system: NCI-H647
How it was run: as §1

NCI-H661 = system: NCI-H661
How it was run: as §1

SK-LU-1 = system: SK-LU-1
How it was run: as §1

SK-MES-1 = system: SK-MES-1
How it was run: as §1

CC(=O)O[C@@]12CO[C@@H]1C[C@H](O)[C@@]1(C)C(=O)[C@H](O)C3=C(C)[C@@H](OC(=O)[C@H](O)[C@@H](NC(=O)OC(C)(C)C)c4ccccc4)C[C@@](O)([C@@H](OC(=O)c4ccccc4)[C@H]21)C3(C)C [Docetaxel] + CS(=O)(=O)CCNCc1ccc(-c2ccc3ncnc(Nc4ccc(OCc5cccc(F)c5)c(Cl)c4)c3c2)o1 [Lapatinib] (partner 2 µM)
relative viability (BEN; first compound 0.0002 µM): 0.582 | relative viability (BEN; first compound 0.000632 µM): 0.549 | relative viability (BEN; first compound 0.002 µM): 0.233 | relative viability (BEN; first compound 0.006325 µM): 0.203 | relative viability (BEN; first compound 0.02 µM): 0.176 | relative viability (EKVX; first compound 0.0002 µM): 0.212 | relative viability (EKVX; first compound 0.000632 µM): 0.173 | relative viability (EKVX; first compound 0.002 µM): 0.14 | relative viability (EKVX; first compound 0.006325 µM): 0.141 | relative viability (EKVX; first compound 0.02 µM): 0.119 | relative viability (HARA; first compound 0.0002 µM): 0.517 | relative viability (HARA; first compound 0.000632 µM): 0.302 | relative viability (HARA; first compound 0.006325 µM): 0.0686 | relative viability (HARA; first compound 0.02 µM): 0.0783 | relative viability (HCC-366; first compound 0.0002 µM): 0.938 | relative viability (HCC-366; first compound 0.000632 µM): 0.054 | relative viability (HCC-366; first compound 0.002 µM): 0.0282 | relative viability (HCC-366; first compound 0.006325 µM): 0.0194 | relative viability (HCC-366; first compound 0.02 µM): 0.011 | relative viability (LOU-NH91; first compound 0.0002 µM): 0.715 | relative viability (LOU-NH91; first compound 0.000632 µM): 0.589 | relative viability (LOU-NH91; first compound 0.002 µM): 0.462 | relative viability (LOU-NH91; first compound 0.006325 µM): 0.361 | relative viability (LOU-NH91; first compound 0.02 µM): 0.351 | relative viability (NCI-H1355; first compound 0.0002 µM): 0.933 | relative viability (NCI-H1355; first compound 0.000632 µM): 0.975 | relative viability (NCI-H1355; first compound 0.002 µM): 0.446 | relative viability (NCI-H1355; first compound 0.006325 µM): 0.289 | relative viability (NCI-H1355; first compound 0.02 µM): 0.21 | relative viability (NCI-H1395; first compound 0.0002 µM): 0.992 | relative viability (NCI-H1395; first compound 0.000632 µM): 0.954 | relative viability (NCI-H1395; first compound 0.002 µM): 0.775 | relative viability (NCI-H1395; first compound 0.006325 µM): 0.368 | relative viability (NCI-H1395; first compound 0.02 µM): 0.268 | relative viability (NCI-H1437; first compound 0.0002 µM): 0.663 | relative viability (NCI-H1437; first compound 0.000632 µM): 0.508 | relative viability (NCI-H1437; first compound 0.002 µM): 0.185 | relative viability (NCI-H1437; first compound 0.006325 µM): 0.12 | relative viability (NCI-H1437; first compound 0.02 µM): 0.089 | relative viability (NCI-H1734; first compound 0.0002 µM): 0.986 | relative viability (NCI-H1734; first compound 0.000632 µM): 0.549 | relative viability (NCI-H1734; first compound 0.002 µM): 0.429 | relative viability (NCI-H1734; first compound 0.006325 µM): 0.322 | relative viability (NCI-H1734; first compound 0.02 µM): 0.221 | relative viability (NCI-H1792; first compound 0.0002 µM): 0.741 | relative viability (NCI-H1792; first compound 0.000632 µM): 0.85 | relative viability (NCI-H1792; first compound 0.002 µM): 0.522 | relative viability (NCI-H1792; first compound 0.02 µM): 0.0831 | relative viability (NCI-H1993; first compound 0.0002 µM): 0.796 | relative viability (NCI-H1993; first compound 0.000632 µM): 0.824 | relative viability (NCI-H1993; first compound 0.002 µM): 0.627 | relative viability (NCI-H1993; first compound 0.006325 µM): 0.534 | relative viability (NCI-H1993; first compound 0.02 µM): 0.451 | relative viability (NCI-H2009; first compound 0.0002 µM): 0.965 | relative viability (NCI-H2009; first compound 0.000632 µM): 0.922 | relative viability (NCI-H2009; first compound 0.002 µM): 0.412 | relative viability (NCI-H2009; first compound 0.006325 µM): 0.195 | relative viability (NCI-H2009; first compound 0.02 µM): 0.12 | relative viability (NCI-H2087; first compound 0.0002 µM): 0.831 | relative viability (NCI-H2087; first compound 0.000632 µM): 0.678 | relative viability (NCI-H2087; first compound 0.002 µM): 0.351 | relative viability (NCI-H2087; first compound 0.006325 µM): 0.269 | relative viability (NCI-H2087; first compound 0.02 µM): 0.137 | relative viability (NCI-H2170; first compound 0.0002 µM): 0.279 | relative viability (NCI-H2170; first compound 0.000632 µM): 0.265 | relative viability (NCI-H2170; first compound 0.002 µM): 0.194 | relative viability (NCI-H2170; first compound 0.006325 µM): 0.224 | relative viability (NCI-H2170; first compound 0.02 µM): 0.184 | relative viability (NCI-H2405; first compound 0.0002 µM): 1.03 | relative viability (NCI-H2405; first compound 0.000632 µM): 0.623 | relative viability (NCI-H2405; first compound 0.002 µM): 0.557 | relative viability (NCI-H2405; first compound 0.006325 µM): 0.488 | relative viability (NCI-H2405; first compound 0.02 µM): 0.345 | relative viability (NCI-H647; first compound 0.0002 µM): 0.868 | relative viability (NCI-H647; first compound 0.000632 µM): 0.217 | relative viability (NCI-H647; first compound 0.002 µM): 0.119 | relative viability (NCI-H647; first compound 0.006325 µM): 0.0918 | relative viability (NCI-H647; first compound 0.02 µM): 0.0858 | relative viability (NCI-H661; first compound 0.0002 µM): 0.495 | relative viability (NCI-H661; first compound 0.000632 µM): 0.516 | relative viability (NCI-H661; first compound 0.002 µM): 0.4 | relative viability (NCI-H661; first compound 0.006325 µM): 0.369 | relative viability (NCI-H661; first compound 0.02 µM): 0.245 | relative viability (SK-LU-1; first compound 0.0002 µM): 0.581 | relative viability (SK-LU-1; first compound 0.000632 µM): 0.436 | relative viability (SK-LU-1; first compound 0.002 µM): 0.338 | relative viability (SK-LU-1; first compound 0.006325 µM): 0.222 | relative viability (SK-LU-1; first compound 0.02 µM): 0.233 | relative viability (SK-MES-1; first compound 0.0002 µM): 0.437 | relative viability (SK-MES-1; first compound 0.000632 µM): 0.633 | relative viability (SK-MES-1; first compound 0.002 µM): 0.378 | relative viability (SK-MES-1; first compound 0.02 µM): 0.159
